Assay results reported in PubChem BioAssay AID1963968 (Molecular Pharmacology Branch, DTP, NCI, 2024).

Test system: 945468-187-T-J3-PDC spheroids with HUVEC/MSC, viability
Experiment: Anticancer human tumor 945468-187-T-J3-PDC patient-derived rectal carcinoma cell line growth inhibition [PI3K]
Conditions: for IC50: curve of first compound; for viability, T/C: stronger effect = lower value
Text: Combinatorial screen of targeted agents with the PI3K inhibitors inavolisib, alpelisib, duvelisib, and copanlisib in multi-cell type tumor spheroids
A high-throughput screen of multi-cell type tumor spheroids was designed to identify active combinations of targeted small molecules and PI3K pathway inhibitors. Complex spheroids include a stromal component modeled by human endothelial cells (HUVEC) and fibroblasts modeled by human mesenchymal stem cells (MSCs). The concentration ranges selected for each drug and investigational agent were based upon clinically achievable concentrations if the clinical Cmax of the agent was known.
Compounds. The drugs and investigational agents: inavolisib (NSC800729), alpelisib (NSC765974), duvelisib (NSC772469), copanlisib (NSC816437), ipatasertib (NSC767898), afuresertib (NSC778305), talazoparib (NSC767125), sapanisertib (NSC764658), selumetinib (NSC741078), tovorafenib (DAY101, NSC766906), vemurafenib (NSC761431), ravoxertinib (NSC781343), sotorasib (NSC818433), MRTX1133 (NSC 836407), abemaciclib (NSC 768073), palbociclib (NSC758247), venetoclax (NSC 766270), SY5609 (NSC837396), enzalutamide (NSC755605), and darolutamide (NSC825331), were obtained from the National Cancer Institute (NCI) Developmental Therapeutics Program Chemical Repository. The FDA-approved anticancer drug set is available from the NCI Developmental Therapeutics Program. […] The stock solutions were prepared in dimethyl sulfoxide (DMSO, Sigma-Aldrich, St. Louis, MO, cat. D2650) at 800-fold the tested concentration and stored at -70 degrees C prior to their use. All drugs and investigational agents were tested over a range starting from a high concentration at or near the clinical Cmax and decreasing in half-log increments. If the clinical Cmax for an agent had not been determined, the highest concentration tested was 10 microM.
Cell Culture. All cells were maintained in an incubator at 37 degrees C and 5% CO2 with 95% humidity. The PDC lines were cultured according to standard operating procedures established by the NCI PDMR (https://pdmr.cancer.gov/sops/default.htm). All PDCs were thawed and cultured in Matrigel-coated flasks prepared with a working solution of 1X Ham's F-12 nutrient mix, without supplementation (Invitrogen, Waltham, MA, cat. 11765054), 100 U/mL penicillin-streptomycin (Invitrogen, cat. 15140122), and 2.5% Matrigel (Corning Inc., Corning, NY, cat. 354248) for the first three passages. The 354836-022-R-J1-PDC, 475296-252-R-J1-PDC, and 997726-040-R-J2-PDC lines were cultured in 6A media, which includes advanced DMEM/F-12 (Thermo Fisher Scientific, cat. 12634028), 10 mM HEPES (Thermo Fisher Scientific, cat. 15630080), 1X GlutaMAX supplement (Thermo Fisher Scientific, cat. 35050061), 0.1 mg/mL primocin (InvivoGen, San Diego, CA, cat. ant-pm-2), 10% defined fetal bovine serum, heat inactivated (HyClone Laboratories Inc., Logan, UT, cat. SH30070.03HI), 50% L-WRN conditioned media (ATCC, cat. CRL-3276), 1.25 mM N-Acetyl-L-cysteine (Sigma-Aldrich, cat. A9165), 10 mM nicotinamide (Sigma-Aldrich, cat. N0636), 1X B-27 supplement (Thermo Fisher Scientific, cat. 17504044), 1X N-2 supplement (Thermo Fisher Scientific, cat. 17502048), and 10 microM Y-27632 dihydrochloride (Tocris Bioscience, Bristol, United Kingdom, cat. 1254). The 624824-186-R-J2-PDC line was cultured in 6C/Colon 1B media, which includes all 6A media components plus 50 ng/mL human EGF recombinant protein (Thermo Fisher Scientific, cat. PHG0311). […]
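Further: spheroids exposed to agents for 7 days before viability read.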
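Wherever viability, T/C is given: 100% = DMSO vehicle control viability.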

## Cn1cnc2c(F)c(Nc3ccc(Br)cc3Cl)c(C(=O)NOCCO)cc21 + CC(Nc1ncnc2nc[nH]c12)c1cc2cccc(Cl)c2c(=O)n1-c1ccccc1
Second compound 0.0316 µM
  IC50: > 3 µM
Second compound 0.1 µM
  IC50: > 3 µM
Second compound 0.316 µM
  IC50: > 3 µM
Second compound 1 µM
  IC50: > 3 µM
Second compound 3.16 µM
  IC50: > 3 µM
Second compound 10 µM
  IC50: > 3 µM
Second compound 0.0316 µM, first compound 0.00949 µM
  viability, T/C: 106%
Second compound 0.0316 µM, first compound 0.03 µM
  viability, T/C: 103%
Second compound 0.0316 µM, first compound 0.0949 µM
  viability, T/C: 116%
Second compound 0.0316 µM, first compound 0.3 µM
  viability, T/C: 115%
Second compound 0.0316 µM, first compound 0.949 µM
  viability, T/C: 104%
Second compound 0.0316 µM, first compound 3 µM
  viability, T/C: 87.2%
Second compound 0.1 µM, first compound 0.00949 µM
  viability, T/C: 96%
Second compound 0.1 µM, first compound 0.03 µM
  viability, T/C: 98%
Second compound 0.1 µM, first compound 0.0949 µM
  viability, T/C: 109%
Second compound 0.1 µM, first compound 0.3 µM
  viability, T/C: 104%
Second compound 0.1 µM, first compound 0.949 µM
  viability, T/C: 101%
Second compound 0.1 µM, first compound 3 µM
  viability, T/C: 95.6%
Second compound 0.316 µM, first compound 0.00949 µM
  viability, T/C: 100%
Second compound 0.316 µM, first compound 0.03 µM
  viability, T/C: 104%
Second compound 0.316 µM, first compound 0.0949 µM
  viability, T/C: 108%
Second compound 0.316 µM, first compound 0.3 µM
  viability, T/C: 111%
Second compound 0.316 µM, first compound 0.949 µM
  viability, T/C: 112%
Second compound 0.316 µM, first compound 3 µM
  viability, T/C: 89%
Second compound 1 µM, first compound 0.00949 µM
  viability, T/C: 97.2%
Second compound 1 µM, first compound 0.03 µM
  viability, T/C: 99.6%
Second compound 1 µM, first compound 0.0949 µM
  viability, T/C: 110%
Second compound 1 µM, first compound 0.3 µM
  viability, T/C: 103%
Second compound 1 µM, first compound 0.949 µM
  viability, T/C: 106%
Second compound 1 µM, first compound 3 µM
  viability, T/C: 84.1%
Second compound 3.16 µM, first compound 0.00949 µM
  viability, T/C: 94.5%
Second compound 3.16 µM, first compound 0.03 µM
  viability, T/C: 119%
Second compound 3.16 µM, first compound 0.0949 µM
  viability, T/C: 105%
Second compound 3.16 µM, first compound 0.3 µM
  viability, T/C: 107%
Second compound 3.16 µM, first compound 0.949 µM
  viability, T/C: 102%
Second compound 3.16 µM, first compound 3 µM
  viability, T/C: 73.8%
Second compound 10 µM, first compound 0.00949 µM
  viability, T/C: 101%
Second compound 10 µM, first compound 0.03 µM
  viability, T/C: 98.8%
Second compound 10 µM, first compound 0.0949 µM
  viability, T/C: 97.2%
Second compound 10 µM, first compound 0.3 µM
  viability, T/C: 98.4%
Second compound 10 µM, first compound 0.949 µM
  viability, T/C: 93.7%
Second compound 10 µM, first compound 3 µM
  viability, T/C: 60.6%

## CC(Cn1ccc(-c2ccc(C#N)c(Cl)c2)n1)NC(=O)c1cc(C(C)O)[nH]n1 (centres undefined) + CC(Nc1ccc2c(c1)OCCn1cc(N3C(=O)OCC3C(F)F)nc1-2)C(N)=O
Second compound 0.00316 µM
  IC50: > 10 µM
Second compound 0.01 µM
  IC50: > 10 µM
Second compound 0.0316 µM
  IC50: > 10 µM
Second compound 0.1 µM
  IC50: > 10 µM
Second compound 0.316 µM
  IC50: > 10 µM
Second compound 1 µM
  IC50: > 10 µM
Second compound 0.00316 µM, first compound 0.0316 µM
  viability, T/C: 95.2%
Second compound 0.00316 µM, first compound 0.1 µM
  viability, T/C: 99.4%
Second compound 0.00316 µM, first compound 0.316 µM
  viability, T/C: 106%
Second compound 0.00316 µM, first compound 1 µM
  viability, T/C: 112%
Second compound 0.00316 µM, first compound 3.16 µM
  viability, T/C: 114%
Second compound 0.00316 µM, first compound 10 µM
  viability, T/C: 99.6%
Second compound 0.01 µM, first compound 0.0316 µM
  viability, T/C: 111%
Second compound 0.01 µM, first compound 0.1 µM
  viability, T/C: 104%
Second compound 0.01 µM, first compound 0.316 µM
  viability, T/C: 93.6%
Second compound 0.01 µM, first compound 1 µM
  viability, T/C: 111%
Second compound 0.01 µM, first compound 3.16 µM
  viability, T/C: 114%
Second compound 0.01 µM, first compound 10 µM
  viability, T/C: 106%
Second compound 0.0316 µM, first compound 0.0316 µM
  viability, T/C: 115%
Second compound 0.0316 µM, first compound 0.1 µM
  viability, T/C: 107%
Second compound 0.0316 µM, first compound 0.316 µM
  viability, T/C: 101%
Second compound 0.0316 µM, first compound 1 µM
  viability, T/C: 111%
Second compound 0.0316 µM, first compound 3.16 µM
  viability, T/C: 109%
Second compound 0.0316 µM, first compound 10 µM
  viability, T/C: 107%
Second compound 0.1 µM, first compound 0.0316 µM
  viability, T/C: 109%
Second compound 0.1 µM, first compound 0.1 µM
  viability, T/C: 115%
Second compound 0.1 µM, first compound 0.316 µM
  viability, T/C: 115%
Second compound 0.1 µM, first compound 1 µM
  viability, T/C: 114%
Second compound 0.1 µM, first compound 3.16 µM
  viability, T/C: 107%
Second compound 0.1 µM, first compound 10 µM
  viability, T/C: 99.1%
Second compound 0.316 µM, first compound 0.0316 µM
  viability, T/C: 107%
Second compound 0.316 µM, first compound 0.1 µM
  viability, T/C: 107%
Second compound 0.316 µM, first compound 0.316 µM
  viability, T/C: 96.7%
Second compound 0.316 µM, first compound 1 µM
  viability, T/C: 115%
Second compound 0.316 µM, first compound 3.16 µM
  viability, T/C: 108%
Second compound 0.316 µM, first compound 10 µM
  viability, T/C: 102%
Second compound 1 µM, first compound 0.0316 µM
  viability, T/C: 80.5%
Second compound 1 µM, first compound 0.1 µM
  viability, T/C: 68.6%
Second compound 1 µM, first compound 0.316 µM
  viability, T/C: 75.4%
Second compound 1 µM, first compound 1 µM
  viability, T/C: 71.2%
Second compound 1 µM, first compound 3.16 µM
  viability, T/C: 74.8%
Second compound 1 µM, first compound 10 µM
  viability, T/C: 71.1%
